Laboratory results published in ChEMBL document CHEMBL3885881, “DrugMatrix”.

Species on record: Rattus norvegicus
Test: DrugMatrix - Regimen: Daily Repeat
Format: toxicity, organism-based, Sprague-Dawley
Parameters: regimen Daily Repeat, gender Male, age 6-8 weeks
Details: in vivo, po, route oral GAVAGE, […]; for ABSOLUTE BASOPHIL / ABSOLUTE EOSINOPHIL / ABSOLUTE LYMPHOCYTE / ABSOLUTE MONOCYTE / ABSOLUTE SEGMENTED NEUTROPHIL / BASOPHIL / EOSINOPHIL / ERYTHROCYTE COUNT / HEMATOCRIT / HEMOGLOBIN / LEUKOCYTE COUNT / LYMPHOCYTE / MEAN CORPUSCULAR HEMOGLOBIN / MEAN CORPUSCULAR HEMOGLOBIN CONCENTRATION / MEAN CORPUSCULAR VOLUME / MONOCYTE / NEUTROPHIL / NUCLEATED RED BLOOD CELLS / PLATELET COUNT: tissue Blood
[1] = 0 mg/kg, 72 h, dose level Control, time 3 day
[2] = 0 mg/kg, 72 h, tissue Plasma, dose level Control, time 3 day
[3] = 0 mg/kg, 120 h, dose level Control, time 5 day
[4] = 0 mg/kg, 120 h, tissue Plasma, dose level Control, time 5 day
[5] = 0.3 mg/kg, 72 h, dose level Low, time 3 day
[6] = 0.3 mg/kg, 72 h, tissue Plasma, dose level Low, time 3 day

SMILES: C[C@]12CC[C@@H]3c4ccc(O)cc4CC[C@H]3[C@@H]1CC[C@@H]2O [ESTRADIOL]
- ABSOLUTE BASOPHIL [1]: 0 CELLS/uL
- ABSOLUTE EOSINOPHIL [1]: 41.83 CELLS/uL
- ABSOLUTE LYMPHOCYTE [1]: 8545.5 CELLS/uL
- ABSOLUTE MONOCYTE [1]: 240 CELLS/uL
- ABSOLUTE SEGMENTED NEUTROPHIL [1]: 906 CELLS/uL
- BASOPHIL [1]: 0%
- EOSINOPHIL [1]: 0.33%
- ERYTHROCYTE COUNT [1]: 5.6 x10E6/uL
- HEMATOCRIT [1]: 35.4%
- HEMOGLOBIN [1]: 13.42 G/DL
- LEUKOCYTE COUNT [1]: 9.73 x10E3/uL
- LYMPHOCYTE [1]: 87.83%
- MEAN CORPUSCULAR HEMOGLOBIN [1]: 23.98 pg
- MEAN CORPUSCULAR HEMOGLOBIN CONCENTRATION [1]: 37.92 G/DL
- MEAN CORPUSCULAR VOLUME [1]: 63.3 fL
- MONOCYTE [1]: 2.5%
- NEUTROPHIL [1]: 9.33%
- NUCLEATED RED BLOOD CELLS [1]: 0 /100WBC
- PLATELET COUNT [1]: 1032 x10E3/uL
- ALANINE AMINOTRANSFERASE [2]: 72.83 u/L
- ALBUMIN [2]: 4 G/DL
- ALKALINE PHOSPHATASE [2]: 322.83 u/L
- ASPARTATE AMINOTRANSFERASE [2]: 102.67 u/L
- BLOOD UREA NITROGEN [2]: 12 mg/dL
- CARBON DIOXIDE [2]: 34.33 mmol/L
- CHLORIDE [2]: 97.67 MEQ/L
- CHOLESTEROL [2]: 82.5 mg/dL
- CREATINE PHOSPHOKINASE [2]: 410.33 u/L
- CREATININE [2]: 0.18 mg/dL
- GLUCOSE [2]: 164.5 mg/dL
- LACTATE DEHYDROGENASE [2]: 119.5 u/L
- LIPASE [2]: 11.83 u/L
- PHOSPHORUS [2]: 9.52 mg/dL
- POTASSIUM [2]: 5.56 MEQ/L
- SODIUM [2]: 142.48 MEQ/L
- TOTAL BILIRUBIN [2]: 0.18 mg/dL
- TOTAL PROTEIN [2]: 5.77 G/DL
- URIC ACID [2]: 0.48 mg/dL
- ABSOLUTE BASOPHIL [3]: 0 CELLS/uL
- ABSOLUTE EOSINOPHIL [3]: 0 CELLS/uL
- ABSOLUTE LYMPHOCYTE [3]: 9065 CELLS/uL
- ABSOLUTE MONOCYTE [3]: 341.33 CELLS/uL
- ABSOLUTE SEGMENTED NEUTROPHIL [3]: 527 CELLS/uL
- BASOPHIL [3]: 0%
- EOSINOPHIL [3]: 0%
- ERYTHROCYTE COUNT [3]: 5.25 x10E6/uL
- HEMATOCRIT [3]: 34.08%
- HEMOGLOBIN [3]: 13.5 G/DL
- LEUKOCYTE COUNT [3]: 9.93 x10E3/uL
- LYMPHOCYTE [3]: 91.17%
- MEAN CORPUSCULAR HEMOGLOBIN [3]: 25.7 pg
- MEAN CORPUSCULAR HEMOGLOBIN CONCENTRATION [3]: 39.62 G/DL
- MEAN CORPUSCULAR VOLUME [3]: 64.93 fL
- MONOCYTE [3]: 3.33%
- NEUTROPHIL [3]: 5.5%
- NUCLEATED RED BLOOD CELLS [3]: 0 /100WBC
- PLATELET COUNT [3]: 1077.5 x10E3/uL
- ALANINE AMINOTRANSFERASE [4]: 57.83 u/L
- ALKALINE PHOSPHATASE [4]: 319.17 u/L
- ASPARTATE AMINOTRANSFERASE [4]: 83.33 u/L
- BLOOD UREA NITROGEN [4]: 13.67 mg/dL
- CARBON DIOXIDE [4]: 30.83 mmol/L
- CHLORIDE [4]: 98.33 MEQ/L
- CHOLESTEROL [4]: 64.83 mg/dL
- CREATINE PHOSPHOKINASE [4]: 263.67 u/L
- CREATININE [4]: 0.2 mg/dL
- GLUCOSE [4]: 182.83 mg/dL
- LACTATE DEHYDROGENASE [4]: 124 u/L
- LIPASE [4]: 10.5 u/L
- PHOSPHORUS [4]: 10 mg/dL
- POTASSIUM [4]: 5.78 MEQ/L
- SODIUM [4]: 142.48 MEQ/L
- TOTAL BILIRUBIN [4]: 0.2 mg/dL
- TOTAL PROTEIN [4]: 6 G/DL
- URIC ACID [4]: 0.7 mg/dL
- ABSOLUTE BASOPHIL [5]: 0 CELLS/uL
- ABSOLUTE EOSINOPHIL [5]: 0 CELLS/uL
- ABSOLUTE LYMPHOCYTE [5]: 8342 CELLS/uL
- ABSOLUTE MONOCYTE [5]: 154.33 CELLS/uL
- ABSOLUTE SEGMENTED NEUTROPHIL [5]: 637 CELLS/uL
- BASOPHIL [5]: 0%
- EOSINOPHIL [5]: 0%
- ERYTHROCYTE COUNT [5]: 5.44 x10E6/uL
- HEMATOCRIT [5]: 33.83%
- HEMOGLOBIN [5]: 13.07 G/DL
- LEUKOCYTE COUNT [5]: 9.13 x10E3/uL
- LYMPHOCYTE [5]: 91.67%
- MEAN CORPUSCULAR HEMOGLOBIN [5]: 24.07 pg
- MEAN CORPUSCULAR HEMOGLOBIN CONCENTRATION [5]: 38.63 G/DL
- MEAN CORPUSCULAR VOLUME [5]: 62.23 fL
- MONOCYTE [5]: 1.67%
- NEUTROPHIL [5]: 6.67%
- NUCLEATED RED BLOOD CELLS [5]: 0 /100WBC
- PLATELET COUNT [5]: 824 x10E3/uL
- ALANINE AMINOTRANSFERASE [6]: 57.33 u/L
- ALKALINE PHOSPHATASE [6]: 430 u/L
- ASPARTATE AMINOTRANSFERASE [6]: 82.67 u/L
- BLOOD UREA NITROGEN [6]: 13.67 mg/dL
- CARBON DIOXIDE [6]: 34 mmol/L
- CHLORIDE [6]: 97.67 MEQ/L
- CHOLESTEROL [6]: 68 mg/dL
- CREATINE PHOSPHOKINASE [6]: 290.33 u/L
- CREATININE [6]: 0.16 mg/dL
- GLUCOSE [6]: 175 mg/dL
- LACTATE DEHYDROGENASE [6]: 124 u/L
- LIPASE [6]: 11 u/L
- PHOSPHORUS [6]: 9.93 mg/dL
- POTASSIUM [6]: 5.76 MEQ/L
- SODIUM [6]: 142.13 MEQ/L
- TOTAL BILIRUBIN [6]: 0.23 mg/dL
- URIC ACID [6]: 0.37 mg/dL
